Measured values taken from patent US7590493B2, “Methods for determining hepatotoxins” (priority 2000, dated 2009).

Experiments:
[1] = Inventors' rat studies: liver pathology and clinical chemistry
[2] = 24 hours, cited from earlier work
[3] = in vivo; cited from earlier work
[4] = single dose, within 24 hours (Fracasso 1990); cited from earlier work
[5] = tested on: human hepatoma cell lines; conditions: in vitro; cited from earlier work
[6] = tested on: primary rat hepatocytes; conditions: in vitro; cited from earlier work
[7] = cited from earlier work
[8] = amitriptyline 600 mg/kg oral, PB 80 mg/kg IP, cited from earlier work; for microsomal phosphatidylcholine content: 6-24 hr
[9] = single oral dose 600 mg/kg, cited from earlier work
[10] = cited from earlier work; remark: listed apart in the source
[11] = tested on: c-fos, c-jun, c-myc; conditions: post dose, acute administration; cited from earlier work
[12] = cited from earlier work; remark: listed apart in the source

Structure (SMILES): CC(O)(CS(=O)(=O)c1ccc(F)cc1)C(=O)Nc1ccc(C#N)c(C(F)(F)F)c1 (stereo not shown) [Bicalutamide]
- hepatocellular hypertrophy ([1]; rat): minor degree
- mitosis rates / mitotic activity ([1]; rat liver): increase

Structure (SMILES): S=C=Nc1cccc2ccccc12 [ANIT, alpha-naphthylisothiocyante]
- levels of total bilirubin, alkaline phosphatase, serum glutamic oxaloacetic transaminase and serum glutamic pyruvic transaminase ([2]; 80 mg/kg oral in olive oil): significantly increased
- total bile flow ([2]; 80 mg/kg oral): reduced
- liver weight vs control-treated [3]: significantly heavier
- serum ALT, gamma-glutamyl transpeptidase, total bilirubin, lipid peroxide and total bile acids [3]: significant increases

Structure (SMILES): COc1ccc2c(c1)c(CC(=O)O)c(C)n2C(=O)c1ccc(Cl)cc1 [indomethacin]
- liver and renal microsomal enzymes, including CYP450 [4]: reduce

Structure (SMILES): Nc1c2c(nc3ccccc13)CCCC2 [tacrine]
- cytotoxicity [5]: displayed cytotoxicity
- cytotoxicity [6]: displayed cytotoxicity

Structure (SMILES): CC(=O)O[C@]1(C(C)=O)CC[C@H]2[C@@H]3C=C(Cl)C4=CC(=O)[C@@H]5C[C@@H]5[C@]4(C)[C@H]3CC[C@@]21C [CPA, cyproterone acetate]
- occurrence of S phase cells ([7]; rat liver): increased
- DNA repair activity ([7]; single oral dose 100 mg CPA/kg body weight, after 16 hours): continuous DNA repair activity was observed

Structure (SMILES): CN(C)CCC=C1c2ccccc2CCc2ccccc21 [amitriptyline]
- microsomal phosphatidylcholine content [8]: increase
- levels of GAT and PCT [8]: slightly affected
- levels of PPH and CPT [8]: significantly altered
- aminolevulinic acid (ALA) activity ([9]; 12 and 24 hours): marked increase
- cytochrome P450 (CYP450) content [9]: remained the same
- total heme and cytochrome b5 levels [9]: increased

Structure (SMILES): ClC(Cl)(Cl)Cl [CCl4, carbon tetrachloride]
- ALT and AST peak levels, increase ([10]; 0.1, 1, 2, 3, 4 mL/kg ip, […] po, within 48 hours post dose): 5-10 fold
- serum α-glutathione s-transferase (α-GST) levels ([10]; 25 μL/kg po, as early as 2 hours): Significant increases
- time of peak hepatic mRNA level, c-fos [11]: 1 to 2 h
- time of peak hepatic mRNA level, c-jun [11]: 3 h
- time of peak hepatic mRNA level, c-myc [11]: 1 h

Structure (SMILES): CCOC(=O)C(C)(C)Oc1ccc(Cl)cc1 [Clofibrate]
- hepatocellular alterations ([1]; following early AST/ALT increases): dose-dependent
- mitosis rates / mitotic activity ([1]; rat liver): increased
- AST and ALT levels ([1]; rat, in vivo): early increases

Structure (SMILES): CCC1(c2ccccc2)C(=O)NC(=O)NC1=O [PB, phenobarbital]
- microsomal phosphatidylcholine content [8]: increase

Structure (SMILES): C#C[C@]1(O)CC[C@H]2[C@@H]3CCc4cc(O)ccc4[C@H]3CC[C@@]21C [17α-ethinylestradiol]
- bile flow ([12]; after 3 days of drug administration): decrease
- plasma cholesterol and plasma triglyceride levels ([12]; rat, in vivo): decrease
- plasma levels of bilirubin, bile salts, AST and ALT ([12]; rat, in vivo): not changed

Structure (SMILES): O=C(CCN1CCN2CCCC2C1)N1c2ccccc2Sc2ccc(Cl)cc21 (stereo not shown) [AY-25329]
- mitosis rates / mitotic activity ([1]; rat liver): increased
- glycogen levels ([1]; rat liver, all rats examined): decreased
